Results from PMC5025758 (Nature Communications, 2016).

Columns and labels:
[1] = biological target: T1, Dopamine D2 (Homo sapiens, UniProt P14416); experiment: cell-based; design: off-target selectivity panel, receptor antagonist, channel blocker or transporter inhibition mode, pXC50; settings: antagonist mode; read-out: pXC50 (antagonist) (converted)
T1 construct: gene DRD2
From the text: (§1) From the outset, GSK3011724A, an indazole sulfonamide (Fig. 1a), represented an attractive compound for early stage drug discovery based on its anti-mycobacterial potency, small size and moderate lipophilicity (Table 1). Further profiling in vitro using standard assays, such as the hERG ion channel and cytochrome P450 isoforms supported this view (Table 1). […] A description of this optimization effort along with a thorough discussion of the drug development potential and liabilities of this series will be the subject of a future publication.

[2] = biological target: T2, Histamine H1 (Homo sapiens, UniProt P35367); experiment: cell-based; design: off-target selectivity panel, receptor antagonist, channel blocker or transporter inhibition mode, pXC50; settings: antagonist mode; read-out: pXC50 (antagonist) (converted)
T2 construct: gene HRH1
From the text: as §1

[3] = biological target: T3, KCNQ1/minK (Homo sapiens, UniProt P15382+P51787); experiment: cell-based; design: off-target selectivity panel, receptor antagonist, channel blocker or transporter inhibition mode, pXC50; settings: read-out: pXC50 (blocker / transporter inhibition) (converted)
T3 construct: gene KCNE1
From the text: as §1

[4] = biological target: T4, Kv1.5 (Homo sapiens, UniProt P22460); experiment: cell-based; design: off-target selectivity panel, receptor antagonist, channel blocker or transporter inhibition mode, pXC50; settings: read-out: pXC50 (blocker / transporter inhibition) (converted)
T4 construct: gene KCNA5
From the text: as §1

[5] = biological target: T5, L-type Ca channel (CaV1.2) (Homo sapiens, UniProt Q13936); experiment: cell-based; design: off-target selectivity panel, receptor antagonist, channel blocker or transporter inhibition mode, pXC50; settings: read-out: pXC50 (blocker / transporter inhibition) (converted)
T5 construct: gene CACNA1C
From the text: as §1

[6] = biological target: T6, Muscarine M1 (Homo sapiens, UniProt P11229); experiment: cell-based; design: off-target selectivity panel, receptor antagonist, channel blocker or transporter inhibition mode, pXC50; settings: antagonist mode; read-out: pXC50 (antagonist) (converted)
T6 construct: gene CHRM1
From the text: as §1

[7] = biological target: T7, Muscarine M2 (Homo sapiens, UniProt P08172); experiment: cell-based; design: off-target selectivity panel, receptor antagonist, channel blocker or transporter inhibition mode, pXC50; settings: antagonist mode; read-out: pXC50 (antagonist) (converted)
T7 construct: gene CHRM2
From the text: as §1

[8] = biological target: T8, NMDA Channel (NR2B) (Homo sapiens, UniProt Q13224); experiment: cell-based; design: off-target selectivity panel, receptor antagonist, channel blocker or transporter inhibition mode, pXC50; settings: read-out: pXC50 (blocker / transporter inhibition) (converted)
T8 construct: gene GRIN2B
From the text: as §1

[9] = biological target: T9, NaV1.5 (Homo sapiens, UniProt Q14524); experiment: cell-based; design: off-target selectivity panel, receptor antagonist, channel blocker or transporter inhibition mode, pXC50; settings: read-out: pXC50 (blocker / transporter inhibition) (converted)
T9 construct: gene SCN5A
From the text: as §1

[10] = biological target: T10, Neurokinin NK1 (Homo sapiens, UniProt P25103); experiment: cell-based; design: off-target selectivity panel, receptor antagonist, channel blocker or transporter inhibition mode, pXC50; settings: antagonist mode; read-out: pXC50 (antagonist) (converted)
T10 construct: gene TACR1
From the text: as §1

[11] = biological target: T11, OATP1B1 (Homo sapiens, UniProt Q9Y6L6); experiment: cell-based; design: off-target selectivity panel, receptor antagonist, channel blocker or transporter inhibition mode, pXC50; settings: read-out: pXC50 (blocker / transporter inhibition) (converted)
T11 construct: gene SLCO1B1
From the text: as §1

[12] = biological target: T12, Serotonin 5HT1B (Homo sapiens, UniProt P28222); experiment: cell-based; design: off-target selectivity panel, receptor antagonist, channel blocker or transporter inhibition mode, pXC50; settings: antagonist mode; read-out: pXC50 (antagonist) (converted)
T12 construct: gene HTR1B
From the text: as §1

[13] = biological target: T13, Serotonin 5HT2A (Homo sapiens, UniProt P28223); experiment: cell-based; design: off-target selectivity panel, receptor antagonist, channel blocker or transporter inhibition mode, pXC50; settings: antagonist mode; read-out: pXC50 (antagonist) (converted)
T13 construct: gene HTR2A
From the text: as §1

[14] = biological target: T14, Serotonin 5HT2C (Homo sapiens, UniProt P28335); experiment: cell-based; design: off-target selectivity panel, receptor antagonist, channel blocker or transporter inhibition mode, pXC50; settings: antagonist mode; read-out: pXC50 (antagonist) (converted)
T14 construct: gene HTR2C
From the text: as §1

[15] = biological target: T15, Serotonin 5HT3 (Homo sapiens, UniProt P46098); experiment: cell-based; design: off-target selectivity panel, receptor antagonist, channel blocker or transporter inhibition mode, pXC50; settings: read-out: pXC50 (blocker / transporter inhibition) (converted)
T15 construct: gene HTR3A
From the text: as §1

[16] = biological target: T16, Vasopressin V1a (Homo sapiens, UniProt P37288); experiment: cell-based; design: off-target selectivity panel, receptor antagonist, channel blocker or transporter inhibition mode, pXC50; settings: antagonist mode; read-out: pXC50 (antagonist) (converted)
T16 construct: gene AVPR1A
From the text: as §1

[17] = biological target: T17, hERG (Homo sapiens, UniProt Q12809); experiment: cell-based; design: off-target selectivity panel, receptor antagonist, channel blocker or transporter inhibition mode, pXC50; settings: read-out: pXC50 (blocker / transporter inhibition) (converted)
T17 construct: gene KCNH2
From the text: as §1

[18] = biological target: T18, α1 nicotinic AChR (Homo sapiens, UniProt P02708); experiment: cell-based; design: off-target selectivity panel, receptor antagonist, channel blocker or transporter inhibition mode, pXC50; settings: read-out: pXC50 (blocker / transporter inhibition) (converted)
T18 construct: gene CHRNA1
From the text: as §1

[19] = biological target: T19, Acetylcholinesterase (Homo sapiens, UniProt P22303); experiment: biochemical; design: off-target selectivity panel, enzyme and kinase inhibition, pXC50; settings: read-out: pXC50 (enzyme inhibition) (converted)
T19 construct: gene ACHE
From the text: as §1

[20] = biological target: T20, COX-2 (Homo sapiens, UniProt P35354); experiment: biochemical; design: off-target selectivity panel, enzyme and kinase inhibition, pXC50; settings: read-out: pXC50 (enzyme inhibition) (converted)
T20 construct: gene PTGS2
From the text: as §1

[21] = biological target: LCK (Homo sapiens, UniProt P06239); experiment: biochemical; design: off-target selectivity panel, enzyme and kinase inhibition, pXC50; settings: read-out: pXC50 (enzyme inhibition) (converted)
From the text: as §1

[22] = biological target: PDE3A (Homo sapiens, UniProt Q14432); experiment: biochemical; design: off-target selectivity panel, enzyme and kinase inhibition, pXC50; settings: read-out: pXC50 (enzyme inhibition) (converted)
From the text: as §1

[23] = biological target: T21, PI3Kγ (Homo sapiens, UniProt P48736); experiment: biochemical; design: off-target selectivity panel, enzyme and kinase inhibition, pXC50; settings: read-out: pXC50 (enzyme inhibition) (converted)
T21 construct: gene PIK3CG
From the text: as §1

T13 sequence (P28223 whole entry, looked up): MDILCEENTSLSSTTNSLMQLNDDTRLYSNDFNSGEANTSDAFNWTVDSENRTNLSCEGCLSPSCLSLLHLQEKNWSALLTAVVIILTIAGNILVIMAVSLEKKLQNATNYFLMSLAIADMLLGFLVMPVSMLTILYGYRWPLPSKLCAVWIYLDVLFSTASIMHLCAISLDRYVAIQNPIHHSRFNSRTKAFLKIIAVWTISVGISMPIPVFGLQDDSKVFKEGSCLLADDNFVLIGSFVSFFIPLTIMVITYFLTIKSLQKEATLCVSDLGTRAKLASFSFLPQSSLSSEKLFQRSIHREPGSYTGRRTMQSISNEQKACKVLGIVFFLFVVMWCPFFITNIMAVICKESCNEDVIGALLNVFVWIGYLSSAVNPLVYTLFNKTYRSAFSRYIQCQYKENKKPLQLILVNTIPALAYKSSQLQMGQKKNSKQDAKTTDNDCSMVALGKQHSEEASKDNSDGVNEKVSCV
PDE3A, sequence (Q14432 whole entry): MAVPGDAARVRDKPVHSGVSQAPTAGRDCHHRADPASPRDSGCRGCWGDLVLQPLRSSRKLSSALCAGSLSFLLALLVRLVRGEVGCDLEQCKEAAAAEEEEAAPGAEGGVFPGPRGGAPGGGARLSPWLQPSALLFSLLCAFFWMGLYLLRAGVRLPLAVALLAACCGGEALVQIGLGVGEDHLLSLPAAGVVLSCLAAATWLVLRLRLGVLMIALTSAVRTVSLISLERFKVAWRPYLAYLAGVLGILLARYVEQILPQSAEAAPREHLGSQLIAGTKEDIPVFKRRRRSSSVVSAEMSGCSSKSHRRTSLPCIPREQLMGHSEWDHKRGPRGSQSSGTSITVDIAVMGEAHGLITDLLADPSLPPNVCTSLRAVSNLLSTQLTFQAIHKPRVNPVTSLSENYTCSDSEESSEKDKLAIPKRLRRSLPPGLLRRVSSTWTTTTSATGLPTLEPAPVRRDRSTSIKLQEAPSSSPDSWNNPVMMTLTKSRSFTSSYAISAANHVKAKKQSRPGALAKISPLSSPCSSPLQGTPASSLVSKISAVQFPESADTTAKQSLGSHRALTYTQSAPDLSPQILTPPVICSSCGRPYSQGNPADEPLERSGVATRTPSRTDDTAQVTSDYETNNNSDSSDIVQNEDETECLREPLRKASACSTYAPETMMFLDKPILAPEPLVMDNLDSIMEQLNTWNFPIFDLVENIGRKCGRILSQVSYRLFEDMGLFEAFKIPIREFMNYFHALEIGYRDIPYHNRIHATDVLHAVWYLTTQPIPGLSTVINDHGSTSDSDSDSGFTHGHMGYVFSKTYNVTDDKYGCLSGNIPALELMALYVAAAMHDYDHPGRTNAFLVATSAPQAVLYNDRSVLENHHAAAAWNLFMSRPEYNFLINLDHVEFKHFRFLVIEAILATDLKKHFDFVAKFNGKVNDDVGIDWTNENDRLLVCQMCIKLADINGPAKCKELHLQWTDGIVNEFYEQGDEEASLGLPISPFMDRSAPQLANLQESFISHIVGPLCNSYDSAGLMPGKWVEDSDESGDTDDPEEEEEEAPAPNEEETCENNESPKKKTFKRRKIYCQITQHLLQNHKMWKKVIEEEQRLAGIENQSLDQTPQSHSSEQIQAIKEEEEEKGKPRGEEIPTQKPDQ
T21 sequence (P48736 whole entry): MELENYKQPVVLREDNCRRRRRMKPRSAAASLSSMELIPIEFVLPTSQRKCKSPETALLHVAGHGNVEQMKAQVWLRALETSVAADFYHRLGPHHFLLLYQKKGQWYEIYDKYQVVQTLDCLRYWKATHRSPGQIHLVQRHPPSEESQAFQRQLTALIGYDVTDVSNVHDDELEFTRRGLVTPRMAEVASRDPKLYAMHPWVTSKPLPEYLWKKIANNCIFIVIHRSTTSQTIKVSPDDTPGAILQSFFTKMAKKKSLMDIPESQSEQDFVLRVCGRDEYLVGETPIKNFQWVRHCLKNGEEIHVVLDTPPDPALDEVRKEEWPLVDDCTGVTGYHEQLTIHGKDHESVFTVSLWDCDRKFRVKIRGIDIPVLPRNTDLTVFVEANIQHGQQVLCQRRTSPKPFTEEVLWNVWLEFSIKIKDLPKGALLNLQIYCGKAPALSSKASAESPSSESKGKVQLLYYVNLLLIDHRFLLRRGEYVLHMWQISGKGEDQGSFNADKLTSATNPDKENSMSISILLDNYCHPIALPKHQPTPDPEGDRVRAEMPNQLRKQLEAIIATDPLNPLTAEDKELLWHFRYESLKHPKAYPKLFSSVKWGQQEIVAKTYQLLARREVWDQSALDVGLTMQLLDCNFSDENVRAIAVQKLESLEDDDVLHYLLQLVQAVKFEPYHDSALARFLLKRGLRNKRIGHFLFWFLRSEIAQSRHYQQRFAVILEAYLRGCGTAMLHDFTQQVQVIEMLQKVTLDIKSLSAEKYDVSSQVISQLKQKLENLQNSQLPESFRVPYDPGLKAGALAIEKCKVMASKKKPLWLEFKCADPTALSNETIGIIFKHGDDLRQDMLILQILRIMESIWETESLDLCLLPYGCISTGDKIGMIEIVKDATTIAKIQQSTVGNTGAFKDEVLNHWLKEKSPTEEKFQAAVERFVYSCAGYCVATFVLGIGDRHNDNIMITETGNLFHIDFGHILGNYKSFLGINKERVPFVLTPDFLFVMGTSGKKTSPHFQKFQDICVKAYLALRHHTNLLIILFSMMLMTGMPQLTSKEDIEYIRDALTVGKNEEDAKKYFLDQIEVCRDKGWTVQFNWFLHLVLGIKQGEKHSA
T7 sequence (P08172 whole entry): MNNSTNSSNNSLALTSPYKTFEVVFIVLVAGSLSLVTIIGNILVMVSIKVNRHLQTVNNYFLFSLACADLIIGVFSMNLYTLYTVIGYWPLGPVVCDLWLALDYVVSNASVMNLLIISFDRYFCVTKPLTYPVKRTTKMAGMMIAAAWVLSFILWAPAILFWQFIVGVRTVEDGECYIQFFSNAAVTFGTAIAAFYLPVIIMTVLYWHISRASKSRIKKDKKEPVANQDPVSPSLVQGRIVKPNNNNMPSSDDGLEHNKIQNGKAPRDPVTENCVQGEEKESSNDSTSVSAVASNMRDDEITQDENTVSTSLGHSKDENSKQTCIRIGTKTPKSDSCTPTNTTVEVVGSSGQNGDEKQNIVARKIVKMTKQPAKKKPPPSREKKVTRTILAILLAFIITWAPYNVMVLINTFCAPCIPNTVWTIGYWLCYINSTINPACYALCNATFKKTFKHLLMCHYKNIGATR
T11 sequence (Q9Y6L6 whole entry): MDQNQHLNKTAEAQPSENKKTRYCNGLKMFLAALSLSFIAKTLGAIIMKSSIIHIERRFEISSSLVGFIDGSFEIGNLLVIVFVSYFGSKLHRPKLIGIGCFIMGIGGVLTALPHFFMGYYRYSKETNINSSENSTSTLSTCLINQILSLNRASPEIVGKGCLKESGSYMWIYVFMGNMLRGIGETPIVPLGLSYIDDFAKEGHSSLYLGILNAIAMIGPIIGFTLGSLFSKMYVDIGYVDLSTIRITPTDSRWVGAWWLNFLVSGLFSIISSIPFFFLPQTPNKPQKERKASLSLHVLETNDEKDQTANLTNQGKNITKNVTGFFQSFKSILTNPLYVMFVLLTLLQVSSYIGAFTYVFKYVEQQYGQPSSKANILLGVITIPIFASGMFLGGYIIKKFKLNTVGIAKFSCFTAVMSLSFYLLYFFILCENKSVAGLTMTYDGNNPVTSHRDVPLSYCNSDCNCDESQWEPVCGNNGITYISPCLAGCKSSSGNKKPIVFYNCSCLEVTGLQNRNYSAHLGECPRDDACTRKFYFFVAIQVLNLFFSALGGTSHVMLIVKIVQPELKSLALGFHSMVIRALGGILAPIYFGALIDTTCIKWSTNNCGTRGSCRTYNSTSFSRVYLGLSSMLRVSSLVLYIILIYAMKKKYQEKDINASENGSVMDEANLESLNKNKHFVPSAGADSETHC
T14 sequence (P28335 whole entry): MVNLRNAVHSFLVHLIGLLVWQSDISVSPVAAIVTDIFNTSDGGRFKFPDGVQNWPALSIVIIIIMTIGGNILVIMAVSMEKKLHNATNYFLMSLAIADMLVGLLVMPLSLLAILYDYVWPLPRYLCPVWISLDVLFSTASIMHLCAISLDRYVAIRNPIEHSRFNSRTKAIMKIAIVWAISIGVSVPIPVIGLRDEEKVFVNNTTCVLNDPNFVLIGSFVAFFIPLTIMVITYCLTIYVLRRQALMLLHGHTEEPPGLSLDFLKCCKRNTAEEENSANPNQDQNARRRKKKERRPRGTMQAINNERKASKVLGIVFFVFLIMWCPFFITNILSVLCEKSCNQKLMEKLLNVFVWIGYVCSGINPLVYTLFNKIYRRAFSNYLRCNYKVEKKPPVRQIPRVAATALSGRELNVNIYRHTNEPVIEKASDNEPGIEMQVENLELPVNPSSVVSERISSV
T4 sequence (P22460 whole entry): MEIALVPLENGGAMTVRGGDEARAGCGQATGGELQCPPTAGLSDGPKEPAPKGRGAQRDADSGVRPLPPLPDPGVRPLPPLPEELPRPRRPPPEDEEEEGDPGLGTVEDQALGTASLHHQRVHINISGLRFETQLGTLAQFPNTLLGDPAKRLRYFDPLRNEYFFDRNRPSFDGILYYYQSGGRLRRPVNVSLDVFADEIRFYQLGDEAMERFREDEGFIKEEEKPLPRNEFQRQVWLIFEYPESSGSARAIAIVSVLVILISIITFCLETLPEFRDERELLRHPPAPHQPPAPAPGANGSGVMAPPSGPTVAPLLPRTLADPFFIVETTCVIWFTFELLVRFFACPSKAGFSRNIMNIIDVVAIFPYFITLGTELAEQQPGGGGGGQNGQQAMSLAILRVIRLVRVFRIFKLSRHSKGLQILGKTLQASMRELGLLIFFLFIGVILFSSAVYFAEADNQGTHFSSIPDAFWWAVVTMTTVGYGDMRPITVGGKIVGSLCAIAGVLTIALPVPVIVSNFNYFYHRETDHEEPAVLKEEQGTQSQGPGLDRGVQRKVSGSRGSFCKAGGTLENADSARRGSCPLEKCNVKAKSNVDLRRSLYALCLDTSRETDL

Question: How did the IC50 [1] turn out when `CCCCS(=O)(=O)Nc1ccc2cnn(C)c2c1` [GSK3011724A] was run?
Answer: Its IC50 is greater than 100 µM.

Question: And the IC50 [2]?
Answer: The IC50 was greater than 25.1 µM.

Question: And the IC50 [3]?
Answer: Its IC50 is greater than 25.1 µM.

Question: And the IC50 [4]?
Answer: Its IC50 is greater than 50.1 µM.

Question: What about the IC50 [5] of the same compound?
Answer: Its IC50 is greater than 100 µM.

Question: And the IC50 [6]?
Answer: The IC50 was greater than 50.1 µM.

Question: And the IC50 [7]?
Answer: Its IC50 is greater than 50.1 µM.

Question: And the IC50 [8]?
Answer: Its IC50 is greater than 50.1 µM.

Question: What about the IC50 [9] of the same compound?
Answer: Its IC50 is greater than 100 µM.

Question: And the IC50 [10]?
Answer: Its IC50 is greater than 25.1 µM.

Question: What about the IC50 [11] of the same compound?
Answer: Its IC50 is greater than 50.1 µM.

Question: What about the IC50 [12] of the same compound?
Answer: Its IC50 is greater than 100 µM.

Question: And the IC50 [13]?
Answer: Its IC50 is greater than 25.1 µM.

Question: And the IC50 [14]?
Answer: Its IC50 is greater than 25.1 µM.

Question: What about the IC50 [15] of the same compound?
Answer: The IC50 was greater than 50.1 µM.

Question: What about the IC50 [16] of the same compound?
Answer: Its IC50 is greater than 50.1 µM.

Question: And the IC50 [17]?
Answer: Its IC50 is greater than 63.1 µM.

Question: What about the IC50 [18] of the same compound?
Answer: Its IC50 is greater than 50.1 µM.

Question: What about the IC50 [19] of the same compound?
Answer: Its IC50 is greater than 100 µM.

Question: And the IC50 [20]?
Answer: Its IC50 is greater than 100 µM.

Question: What about the IC50 [21] of the same compound?
Answer: The IC50 was greater than 31.6 µM.

Question: And the IC50 [22]?
Answer: The IC50 was greater than 100 µM.

Question: What about the IC50 [23] of the same compound?
Answer: Its IC50 is greater than 31.6 µM.
